Columns and labels:
[1] = tested on: cutaneous mast cell tumors; test: Prospective case series of pet dogs with measurable cutaneous mast cell tumors; format: in vivo, dog; details: 25 mg/kg PO QD x 60 days of SALT I
Description: The study patients are pet dogs with measurable and histologically-confirmed mast cell tumors. Cases are limited to those with measurable lesions amenable to biopsy.
Pretreatment evaluation of all cases include physical examination, complete blood count, buffy coat, serum biochemistry, urinalysis, serum bile acids (fasting and post-prandial), documentation of regional lymph node size, abdominal radiographs and abdominal ultrasound. The treatment regimen is 25 mg/kg PO QD×60 days of SALT I.
Treatment is continued in all cases for 60 days unless disease progression is noted. In cases experiencing partial response or complete response ongoing therapy for an additional 60 days may be considered. Cases successfully completing therapy are eligible for repeat entry to study.
The efficacy of COMPOUND I is assessed against measurable cutaneous mast cell tumors, using clinical endpoints. Biological endpoints may be taken from serial biopsies collected from cutaneous tumors and from blood samples available through the treatment course.
Clinical endpoints include response rate of measurable tumors, objective response against measurable tumor, and time to progression of measurable tumor. All adverse side effects will be recorded.
Furthermore, it may be observed that more animals obtaining treatment show Stable Disease (SD), while less treated animals show Progressive Disease (PD). […]

BR or C2 cells = test: Proliferation of BR or C2 cells (cell lines not separated); format: cell-based, canine
Description: (§1) Cell lines: BR and C2 canine mastocytoma cells lines were obtained from Dr. George Caughey (University of California at San Francisco, San Francisco, Calif.). Both cell lines were maintained in DMEM supplemented with 2% bovine calf, 1 mM L-glutamine, 12.5 mM HEPES (pH 7.5), 0.25 mg/mL Histidine, 1% Penicillin-Streptomycin and 1% fungizone. The BR and C2 cells were derived from canine mast cell tumors and were originally established in long-term culture after initial passaging in immunodeficient mice (DeVinney et al., Am. J. Respir. Cell Mol. Biol., Vol. 3, No. 5, pp. 413-420 (1990); Lazarus et al., Am. J. Physiol., Vol. 251, No. 6, Pt 1, pp. C935-C944 (1986)). The BR cell line has a point mutation (T1752C) resulting in a Leucine to Proline substitution at amino acid 575 (juxtamembrane domain). The C2 cell line has an internal tandem duplication (ITD) of the KIT juxtamembrane region.

[2] = tested on: constitutively activated mutant canine KIT (BR and C2 cells); test: KIT autophosphorylation in BR and C2 cell lysates (anti-P-Tyr Western immunoblot); format: cell-based
Excerpt: Antibodies: A polyclonal rabbit anti-KIT antibody (c-kit Ab-1) was used at a dilution of 1:500 (c-kit Ab-1; Oncogene, Cambridge, Mass.). An anti-phosphotyrosine antibody (PY20) was used at a dilution of 1:1000 (PY20 Transduction Laboratories; Lexington, Ky.). Peroxidase conjugated goat anti-mouse antibody was used at a dilution of 1:5000 and goat anti-rabbit antibody at a dilution of 1:10,000 (Pierce; Rockford, Ill.).
as §1
Protein lysates: BR and C2 cells were washed ×2 in PBS and then quiesced in Optimem (Gibco-BRL) at 37° C. for approximately 18 hours.
Dermatol., Vol.114, No. 2, pp. 392-394 (2000)).

Cc1ccc(NC(=O)c2ccc(CN3CCN(C)CC3)cc2)cc1Nc1nccc(-c2cccnc2)n1 [COMPOUND I]
Objective Tumors Responses [1]: are observed
Inhibition of proliferation (BR or C2 cells; 0.001-0.01 μM, 48-72 hours): Partial inhibition
Morphologic observations of inhibitor treated cells (BR or C2 cells; data not shown): changes consistent with apoptosis
Inhibition of KIT autophosphorylation ([2]; 0.1 μM dose, BR or C2 cells): Near complete inhibition
Autophosphorylation of c-kit ([2]; 0.001-0.01 μM doses, BR or C2 cells): Limited autophosphorylation
Inhibition of KIT autophosphorylation ([2]; 10 and 1.0 μM doses, BR or C2 cells, 90 minutes incubation, no SLF): complete inhibition
Potency on mutated c-kit receptor compared with wild type c-kit receptor ([2]; BR and C2 cells against literature wild type value): more potent inhibitor of this mutated receptor than it is of the wild type c-kit receptor
Expression of c-kit protein (membrane reprobed with anti-c-kit antibody) ([2]; treated BR or C2 cells): no change in expression of c-kit protein

Source: patent publication US20030191131A1, “Use of organic compounds” (priority 2002, published 2003)
